Assay results reported in patent US20090143279A1 (priority 2007, published 2009).
Read-outs that look alike come from different tables or passages of the source.

How the values were obtained:
cytochrome c = format: cell-based, mouse
[1] = system: mitochondrial membrane potential; format: cell-based, mouse
nuOXPHOS transcripts = format: cell-based, mouse
mtOXPHOS transcripts = format: cell-based, mouse
reactive oxygen species = format: cell-based, mouse
OXPHOS gene expression = format: cell-based, mouse
[2] = system: cellular dehydrogenase activity
[3] = Conc 20 μM, normalized score vs mock-treated (DMSO) wells
[4] = composite Z-score vs DMSO, Conc 20 μM
[5] = normalized composite Z-score vs mock-treated (DMSO) wells, Conc 20 μM
[6] = Table 4, C2C12 myotubes, 48 h, composite Z-score
[7] = 20 μM, composite Z-score vs DMSO
[8] = 25.78 μM, composite Z-score vs DMSO
[9] = composite Z-score vs mock-treated (DMSO) wells, Conc 20 μM
[10] = composite Z-score vs DMSO wells, Conc 20 μM
[11] = composite Z-score vs DMSO, Conc 8.92 μM

cytochrome c, sequence (P62897 whole entry): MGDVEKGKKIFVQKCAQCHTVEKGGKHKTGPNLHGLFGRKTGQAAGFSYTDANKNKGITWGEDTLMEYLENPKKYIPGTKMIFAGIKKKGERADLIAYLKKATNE

C[C@@H]1O[C@@H](O[C@H]2[C@H](O[C@H]3CC[C@@]4(C)[C@@H](CC[C@]5(C)[C@@H]4CC=C4[C@@H]6CC(C)(C)CC[C@]6(C(=O)O[C@@H]6O[C@H](CO[C@@H]7O[C@H](CO)[C@@H](O[C@@H]8O[C@@H](C)[C@H](O)[C@@H](O)[C@H]8O)[C@H](O)[C@H]7O)[C@@H](O)[C@H](O)[C@H]6O)CC[C@]45C)[C@]3(C)CO)OC[C@H](O)[C@@H]2O)[C@H](O)[C@H](O)[C@H]1O [hederacoside C]
cyt c (composite Z-score) (cytochrome c; [3]): 0.471 | ΔΨm (composite Z-score) [1, 3]: −0.559 | nucOX (composite Z-score) (nuOXPHOS transcripts; [3]): −0.645 | mitoOX (composite Z-score) (mtOXPHOS transcripts; [3]): −0.952 | ROS (composite Z-score) (reactive oxygen species; [3]): 0.079 | GE-HTS (composite Z-score) (OXPHOS gene expression; [3]): −0.809 | MTT (composite Z-score) [2, 3]: −1.226 | Viability (composite Z-score) (C2C12 myotubes; [3]): −0.672

CC(C)CCC[C@@H](C)[C@H]1CC[C@H]2[C@@H]3CC(=O)[C@H]4C[C@@H](O)CC[C@]4(C)[C@H]3CC[C@]12C [5alpha-cholestan-3beta-ol-6-one]
cyt c (cytochrome c; [4]): 1.006 | ΔΨm [1, 4]: 0.479 | nucOX (nuOXPHOS transcripts; [4]): −0.603 | mitoOX (mtOXPHOS transcripts; [4]): −0.862 | ROS (reactive oxygen species; [4]): 0.397 | GE-HTS (OXPHOS gene expression; [4]): −0.731 | MTT [2, 4]: 0.811 | Viability (C2C12 myotubes; [4]): −0.430

12a-hydroxy-5-deoxydehydromunduserone [reference compound]
cyt c (cytochrome c; [5]): −0.179 | ΔΨm ([1]; Table 4, C2C12 myotubes, 48 h, JC-1, composite Z-score): −0.179 | ΔΨm [1, 5]: −0.179 | nucOX (nuOXPHOS transcripts; [5]): 0.193 | mitoOX (mtOXPHOS transcripts; [5]): 0.239 | ROS (reactive oxygen species; [6]): 0.823 | ROS (reactive oxygen species; [5]): 0.823 | GE-HTS (OXPHOS gene expression; [5]): 0.211 | MTT [2, 6]: −1.976 | MTT [2, 5]: −1.976 | Viability (C2C12 myotubes; [6]): −0.940 | Viability (C2C12 myotubes; [5]): −0.940

C[C@H]1C[C@H]2[C@@H]3CCC4=CC(=O)C=C[C@]4(C)[C@@]3(F)[C@@H](O)C[C@]2(C)[C@@]1(O)C(=O)CO [betamethasone]
cyt c (composite Z-score) (cytochrome c): 0.130 | ΔΨm (composite Z-score) [1]: 0.849 | nucOX (composite Z-score) (nuOXPHOS transcripts): 0.633 | mitoOX (composite Z-score) (mtOXPHOS transcripts): 0.853 | ROS (composite Z-score) (reactive oxygen species): 0.541 | GE-HTS (composite Z-score) (OXPHOS gene expression): 0.740 | MTT (composite Z-score) [2]: −1.063 | Viability (composite Z-score) (C2C12 myotubes): −0.984

COC(=O)C1=CCCN(C)C1 [arecoline]
cyt c (cytochrome c; [7]): 0.839 | cyt c (cytochrome c; [8]): 0.503 | ΔΨm [1, 7]: −0.451 | ΔΨm [1, 8]: −0.281 | nucOX (nuOXPHOS transcripts; [7]): −0.261 | nucOX (nuOXPHOS transcripts; [8]): 0.385 | mitoOX (mtOXPHOS transcripts; [7]): −1.072 | mitoOX (mtOXPHOS transcripts; [8]): −0.513 | ROS (reactive oxygen species; [7]): −1.032 | ROS (reactive oxygen species; [8]): −1.084 | GE-HTS (OXPHOS gene expression; [7]): −0.545 | GE-HTS (OXPHOS gene expression; [8]): 0.098 | MTT [2, 7]: −0.452 | MTT [2, 8]: −0.607 | Viability (C2C12 myotubes; [7]): 0.018 | Viability (C2C12 myotubes; [8]): 0.481

COc1cc2c(cc1OC)[C@@H]1C(=O)c3ccc(OC)c(CC=C(C)C)c3O[C@@H]1CO2 [rotenonic acid, methyl ether]
cyt c (cytochrome c; [9]): −3.644 | ΔΨm [1, 9]: −3.751 | nucOX (nuOXPHOS transcripts; [9]): −1.024 | mitoOX (mtOXPHOS transcripts; [9]): −4.305 | ROS (reactive oxygen species; [9]): −3.513 | GE-HTS (OXPHOS gene expression; [9]): −2.268 | MTT [2, 9]: −3.898 | Viability (C2C12 myotubes; [9]): 0.582

CCOC(=O)CCCCCCCCCCCCC1C=CCC1 (stereo not drawn) [chaulmoogric acid, ethyl ester]
cyt c (cytochrome c; [10]): 0.617 | ΔΨm [1, 10]: −0.536 | nucOX (nuOXPHOS transcripts; [10]): −0.876 | mitoOX (mtOXPHOS transcripts; [10]): −0.265 | ROS (reactive oxygen species; [10]): 0.513 | GE-HTS (OXPHOS gene expression; [10]): −0.730 | MTT [2, 10]: −0.612 | Viability (C2C12 myotubes; [10]): −0.015

CC(=O)[C@@]1(O)CC[C@H]2[C@@H]3C=C(Cl)C4=CC(=O)[C@@H]5C[C@@H]5[C@]4(C)[C@H]3CC[C@@]21C [cyproterone]
cyt c (cytochrome c; [4]): 0.548 | ΔΨm [1, 4]: −0.962 | nucOX (nuOXPHOS transcripts; [4]): −0.461 | mitoOX (mtOXPHOS transcripts; [4]): −0.446 | ROS (reactive oxygen species; [4]): 1.155 | GE-HTS (OXPHOS gene expression; [4]): −0.490 | MTT [2, 4]: 0.079 | Viability (C2C12 myotubes; [4]): 0.014

methylorsellinic acid, ethyl ester
cyt c (cytochrome c; [5]): 0.754 | ΔΨm [1, 5]: −0.478 | nucOX (nuOXPHOS transcripts; [5]): −1.040 | mitoOX (mtOXPHOS transcripts; [5]): −0.770 | ROS (reactive oxygen species; [5]): −0.293 | GE-HTS (OXPHOS gene expression; [5]): −0.990 | MTT [2, 5]: −0.661 | Viability (C2C12 myotubes; [5]): 0.459

O=C(O)c1nc2cc(Cl)c(Cl)cc2nc1O
cyt c (composite Z-score) (cytochrome c; [3]): 0.217 | ΔΨm (composite Z-score) [1, 3]: −0.521 | nucOX (composite Z-score) (nuOXPHOS transcripts; [3]): −0.313 | mitoOX (composite Z-score) (mtOXPHOS transcripts; [3]): −0.230 | ROS (composite Z-score) (reactive oxygen species; [3]): 0.666 | GE-HTS (composite Z-score) (OXPHOS gene expression; [3]): −0.320 | MTT (composite Z-score) [2, 3]: −0.131 | Viability (composite Z-score) (C2C12 myotubes; [3]): 0.109

CC(CN(C)C)CN1c2ccccc2Sc2ccccc21 (stereo not drawn) [trimeprazine]
cyt c (cytochrome c; [11]): −2.786 | cyt c (cytochrome c; [4]): −0.086 | ΔΨm [1, 11]: −0.821 | ΔΨm [1, 4]: 1.905 | nucOX (nuOXPHOS transcripts; [11]): −0.936 | nucOX (nuOXPHOS transcripts; [4]): −0.130 | mitoOX (mtOXPHOS transcripts; [11]): −0.778 | mitoOX (mtOXPHOS transcripts; [4]): 0.208 | ROS (reactive oxygen species; [11]): 1.314 | ROS (reactive oxygen species; [4]): −0.430 | GE-HTS (OXPHOS gene expression; [11]): −0.942 | GE-HTS (OXPHOS gene expression; [4]): −0.013 | MTT [2, 11]: −2.221 | MTT [2, 4]: −2.227 | Viability (C2C12 myotubes; [11]): 0.760 | Viability (C2C12 myotubes; [4]): −1.472
